What was measured:
EA.hy 926 = assay: Antiproliferative activity against human EAhy926 cells assessed as reduction in cell viability after 24 hrs by CCK-8 assay; details: EA.hy 926, 24 h
Ephrin type-B receptor 4 = molecular target: T1, Ephrin type-B receptor 4 (Homo sapiens, UniProt P54760); assay: Inhibition of EphB4 (unknown origin) after 1 hrs by ADP-Glo luminescence assay
T1 sequence (P54760 whole entry): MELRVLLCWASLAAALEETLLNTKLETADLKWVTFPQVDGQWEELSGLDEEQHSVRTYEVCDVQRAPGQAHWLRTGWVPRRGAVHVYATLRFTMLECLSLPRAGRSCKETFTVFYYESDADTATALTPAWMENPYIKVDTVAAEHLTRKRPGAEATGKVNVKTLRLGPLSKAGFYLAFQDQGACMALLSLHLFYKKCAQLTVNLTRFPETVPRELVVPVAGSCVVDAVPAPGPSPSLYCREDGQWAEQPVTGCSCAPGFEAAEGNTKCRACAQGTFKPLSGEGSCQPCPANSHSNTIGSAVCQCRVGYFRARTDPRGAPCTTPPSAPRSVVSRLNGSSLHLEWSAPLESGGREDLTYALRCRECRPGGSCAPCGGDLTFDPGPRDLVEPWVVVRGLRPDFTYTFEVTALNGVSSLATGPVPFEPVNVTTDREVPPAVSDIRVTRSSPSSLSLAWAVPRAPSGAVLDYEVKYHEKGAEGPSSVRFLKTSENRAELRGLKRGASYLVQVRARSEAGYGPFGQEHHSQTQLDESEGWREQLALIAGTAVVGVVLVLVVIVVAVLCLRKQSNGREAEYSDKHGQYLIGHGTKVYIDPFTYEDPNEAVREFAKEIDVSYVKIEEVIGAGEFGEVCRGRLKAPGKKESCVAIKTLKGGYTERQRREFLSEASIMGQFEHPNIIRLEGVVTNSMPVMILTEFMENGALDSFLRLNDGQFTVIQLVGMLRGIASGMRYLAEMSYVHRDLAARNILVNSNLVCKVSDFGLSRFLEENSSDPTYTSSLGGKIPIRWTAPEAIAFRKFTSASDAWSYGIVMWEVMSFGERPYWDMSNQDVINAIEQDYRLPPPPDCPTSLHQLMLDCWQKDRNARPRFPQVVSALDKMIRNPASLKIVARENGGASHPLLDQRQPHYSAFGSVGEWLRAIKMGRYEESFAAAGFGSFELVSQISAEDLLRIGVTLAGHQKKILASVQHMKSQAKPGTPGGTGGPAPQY

Angiopoietin-1 receptor = Angiopoietin-1 receptor (Homo sapiens, UniProt Q02763); assay: Inhibition of Tie-2 (unknown origin) after 1 hrs by ADP-Glo luminescence assay
A-431 = assay: Antiproliferative activity against human A431 cells after 48 hrs by MTT assay; details: A-431, 48 h
MCF7 = assay: Antiproliferative activity against human MCF7 cells after 48 hrs by MTT assay; details: MCF7, 48 h
A549 = assay: Antiproliferative activity against human A549 cells after 48 hrs by MTT assay; details: A549, 48 h
LoVo = assay: Antiproliferative activity against human LoVo cells after 48 hrs by MTT assay
HeLa = assay: Antiproliferative activity against human HeLa cells after 48 hrs by MTT assay
[1] = molecular target: Vascular endothelial growth factor receptor 2 (Homo sapiens, UniProt P35968); assay: Inhibition of VEGFR-2 (unknown origin) after 1 hrs by ADP-Glo luminescence assay
Sequence of Vascular endothelial growth factor receptor 2 (P35968 whole entry): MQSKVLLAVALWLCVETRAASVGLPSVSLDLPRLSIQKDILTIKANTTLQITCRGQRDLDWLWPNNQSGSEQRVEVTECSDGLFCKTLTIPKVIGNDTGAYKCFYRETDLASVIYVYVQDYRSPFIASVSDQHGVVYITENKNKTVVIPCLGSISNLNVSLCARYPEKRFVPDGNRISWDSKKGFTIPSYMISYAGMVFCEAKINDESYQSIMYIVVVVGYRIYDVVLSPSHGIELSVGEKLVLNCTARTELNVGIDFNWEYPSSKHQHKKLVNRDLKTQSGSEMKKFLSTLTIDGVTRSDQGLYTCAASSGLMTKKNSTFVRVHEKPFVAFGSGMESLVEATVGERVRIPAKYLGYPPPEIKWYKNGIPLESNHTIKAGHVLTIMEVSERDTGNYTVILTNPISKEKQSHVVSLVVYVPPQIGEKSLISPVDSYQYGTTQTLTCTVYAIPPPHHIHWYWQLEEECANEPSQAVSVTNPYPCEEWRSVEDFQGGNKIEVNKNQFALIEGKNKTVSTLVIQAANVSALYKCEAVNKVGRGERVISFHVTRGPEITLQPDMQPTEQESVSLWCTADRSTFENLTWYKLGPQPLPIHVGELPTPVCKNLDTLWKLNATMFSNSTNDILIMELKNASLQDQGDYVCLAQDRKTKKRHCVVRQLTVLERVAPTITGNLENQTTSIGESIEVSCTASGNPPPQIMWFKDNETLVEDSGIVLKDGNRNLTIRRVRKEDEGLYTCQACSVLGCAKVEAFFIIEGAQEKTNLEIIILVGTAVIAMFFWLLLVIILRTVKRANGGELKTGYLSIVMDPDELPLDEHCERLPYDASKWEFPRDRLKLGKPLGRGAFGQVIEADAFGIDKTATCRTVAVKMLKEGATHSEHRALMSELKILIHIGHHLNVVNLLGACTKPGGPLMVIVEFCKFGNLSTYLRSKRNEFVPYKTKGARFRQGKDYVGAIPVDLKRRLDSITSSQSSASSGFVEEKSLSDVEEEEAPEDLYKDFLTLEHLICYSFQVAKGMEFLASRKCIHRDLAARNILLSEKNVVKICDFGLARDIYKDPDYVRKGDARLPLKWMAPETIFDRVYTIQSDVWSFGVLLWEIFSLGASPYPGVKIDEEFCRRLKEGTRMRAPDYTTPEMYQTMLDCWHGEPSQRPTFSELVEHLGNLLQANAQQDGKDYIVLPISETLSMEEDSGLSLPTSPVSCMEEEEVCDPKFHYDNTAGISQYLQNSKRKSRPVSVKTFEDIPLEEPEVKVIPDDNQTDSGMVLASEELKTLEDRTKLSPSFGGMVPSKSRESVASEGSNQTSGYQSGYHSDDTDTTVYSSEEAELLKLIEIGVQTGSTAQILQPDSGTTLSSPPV

Sequence of Angiopoietin-1 receptor (Q02763 whole entry): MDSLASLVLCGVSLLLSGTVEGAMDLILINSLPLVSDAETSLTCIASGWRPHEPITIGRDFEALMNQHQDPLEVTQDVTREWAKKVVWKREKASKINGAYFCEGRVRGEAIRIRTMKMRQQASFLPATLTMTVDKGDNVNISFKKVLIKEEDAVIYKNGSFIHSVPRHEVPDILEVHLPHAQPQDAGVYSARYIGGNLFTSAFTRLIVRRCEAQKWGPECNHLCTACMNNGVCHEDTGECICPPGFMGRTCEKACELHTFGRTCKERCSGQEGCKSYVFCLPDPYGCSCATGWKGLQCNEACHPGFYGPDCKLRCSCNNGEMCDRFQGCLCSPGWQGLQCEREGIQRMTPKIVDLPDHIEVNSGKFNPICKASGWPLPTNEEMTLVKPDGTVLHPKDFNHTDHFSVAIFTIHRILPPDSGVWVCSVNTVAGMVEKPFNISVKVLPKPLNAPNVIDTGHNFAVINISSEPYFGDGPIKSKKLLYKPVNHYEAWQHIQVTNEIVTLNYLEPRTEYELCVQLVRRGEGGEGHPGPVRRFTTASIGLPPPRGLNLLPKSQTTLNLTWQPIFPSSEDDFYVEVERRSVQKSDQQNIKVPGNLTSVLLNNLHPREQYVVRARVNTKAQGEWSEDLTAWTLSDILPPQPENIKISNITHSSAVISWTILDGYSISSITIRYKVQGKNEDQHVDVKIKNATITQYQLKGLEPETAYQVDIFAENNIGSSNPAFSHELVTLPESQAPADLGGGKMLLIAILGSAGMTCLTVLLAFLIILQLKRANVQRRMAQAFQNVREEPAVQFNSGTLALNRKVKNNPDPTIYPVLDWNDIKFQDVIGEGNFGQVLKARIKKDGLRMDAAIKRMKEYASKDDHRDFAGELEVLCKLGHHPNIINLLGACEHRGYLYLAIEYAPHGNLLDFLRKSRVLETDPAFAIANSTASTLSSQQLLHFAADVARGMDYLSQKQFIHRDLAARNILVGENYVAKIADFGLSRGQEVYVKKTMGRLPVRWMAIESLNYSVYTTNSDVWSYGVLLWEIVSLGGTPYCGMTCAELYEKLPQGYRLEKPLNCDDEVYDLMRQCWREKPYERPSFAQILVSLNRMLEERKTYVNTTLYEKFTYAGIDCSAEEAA

IC50 (Ephrin type-B receptor 4) [µM] | IC50 (Angiopoietin-1 receptor) [µM] | Compound | IC50 (EA.hy 926) [µM] | also measured
– | 0.00179 | Cn1cc(-c2ccc(Cn3cc(-c4cccc(C(F)(F)F)c4)nn3)cc2)cn1 | 69 | –
– | > 1 | Cn1cc(-c2ccc(Cn3cc(-c4ccccc4)nn3)cc2)cn1 | 62.2 | –
> 1 | 0.0464 | Cc1cccc(-c2cn(Cc3ccc(-c4cn[nH]c4)cc3)nn2)c1 | 134 | –
> 1 | > 1 | FC(F)(F)c1ccc(-c2cn(Cc3ccc(-c4cncnc4)cc3)nn2)cc1 | 46.8 | –
– | 0.00911 | Cn1cc(-c2ccc(Cn3cc(-c4ccc(C(F)(F)F)cc4)nn3)cc2)cn1 | – | IC50 [1]: > 1 µM
– | 0.00269 | Cn1cc(-c2ccc(Cn3cc(-c4ccccc4F)nn3)cc2)cn1 | 1.9 | IC50 (A-431): 7.29 µM; IC50 (MCF7): 15.6 µM; IC50 (A549): 1.2 µM; IC50 (LoVo): 1.32 µM; IC50 (HeLa): 27.8 µM
> 1 | 0.00082 | Cn1cc(-c2ccc(Cn3cc(-c4cccc(NC(=O)C5CC5)c4)nn3)cc2)cn1 | 484 | –
> 1 | > 1 | Cn1cc(-c2ccc(Cn3cc(-c4cccc(N)c4)nn3)cc2)cn1 | 22 | –
– | 0.0514 | Cc1cccc(-c2cn(Cc3ccc(-c4cnn(C)c4)cc3)nn2)c1 | 1.11 | IC50 [1]: > 1 µM
– | 0.0774 | Cc1ccc(-c2cn(Cc3ccc(-c4cnn(C)c4)cc3)nn2)cc1 | 38.1 | –
– | > 1 | FC(F)(F)c1ccc(-c2cn(Cc3ccc(-c4cn[nH]c4)cc3)nn2)cc1 | 20.9 | IC50 [1]: > 1 µM

The remaining lines, values behind:

Compound | IC50 (Ephrin type-B receptor 4) [µM] | IC50 (Angiopoietin-1 receptor) [µM] | IC50 (EA.hy 926) [µM] | also measured
Nc1cccc(-c2cn(Cc3ccc(-c4cncnc4)cc3)nn2)c1 | > 1 | 0.21 | 30.2 | –
Cc1ccc(-c2cn(Cc3ccc(-c4cncnc4)cc3)nn2)cc1 | – | 0.0257 | 1.01 | –
Clc1cccc(-c2cn(Cc3ccc(-c4cncnc4)cc3)nn2)c1 | > 1 | – | 7.83 | –
Fc1ccccc1-c1cn(Cc2ccc(-c3cncnc3)cc2)nn1 | – | 0.00545 | 22.5 | –
CNC(=O)c1cc(Oc2ccc(NC(=O)Nc3ccc(Cl)c(C(F)(F)F)c3)cc2)ccn1 [SORAFENIB] | – | – | – | IC50 (A-431): 3.32 µM; IC50 (MCF7): 3.47 µM; IC50 (A549): 3.88 µM; IC50 (LoVo): 2.52 µM; IC50 (HeLa): 8.74 µM
Fc1ccccc1-c1cn(Cc2ccc(-c3cn[nH]c3)cc2)nn1 | – | 0.00546 | 19.9 | –
O=C(Nc1cccc(-c2cn(Cc3ccc(-c4cncnc4)cc3)nn2)c1)C1CC1 | > 1 | > 1 | 17.3 | –
Nc1cccc(-c2cn(Cc3ccc(-c4cn[nH]c4)cc3)nn2)c1 | > 1 | > 1 | 251 | IC50 [1]: > 1 µM
Cc1cccc(-c2cn(Cc3ccc(-c4cncnc4)cc3)nn2)c1 | – | 0.0137 | 142 | –
c1ccc(-c2cn(Cc3ccc(-c4cncnc4)cc3)nn2)cc1 | – | 0.0519 | 35.5 | IC50 [1]: > 1 µM
